Assay [1] relates to MCF7. As to the kind of experiment: Inhibition of DNA methylation in human MCF7 cells assessed as reduction in H3K27me3 levels at 15 uM after 48 hrs by Western blot analysis. The class given is cell-based. In general terms: A western blot detects proteins with antibodies after separation by electrophoresis.
In assay [2] the test system is MCF7. The assay is described as follows: Inhibition of DNA methylation in human MCF7 cells assessed as reduction in H3K9me3 levels at 15 uM after 48 hrs by Western blot analysis. The class given is cell-based.
Assay [3] deals with MCF7. The assay is described as follows: Antiproliferative activity against human MCF7 cells after 48 to 72 hrs by MTT assay. The class given is functional, cell-based. A general note: Tetrazolium assays rely on reduction of a dye to a coloured formazan, in cell work by metabolically active cells.
The nature of assay [4]: Antiproliferative activity against human H460 cells after 48 to 72 hrs by MTT assay. It is filed as functional, cell-based. To be noted: NCI-H460.
The test system of a further assay is MSTO-211H. The assay is described as follows: Antiproliferative activity against human MSTO-211H cells after 48 to 72 hrs by MTT assay. The class given is functional, cell-based.
Assay [5] deals with MCF7. The assay is described as follows: Cell cycle arrest in human MCF7 cells assessed as accumulation at G2/M phase at 15 uM after 72 hrs by flow cytometry relative to control. It is filed as functional. (A flow cytometer gives signals particle by particle.)
In assay [6] the test system is MCF7. The assay is described as follows: Induction of apoptosis in human MCF7 cells assessed as viable cells at 15 uM after 48 hrs by AnnexinV-FITC staining based flow cytometry (reference value: 74.4 +/- 9.1 %). To be noted: MCF7, 48 h, read-out: Activity. The class given is functional.
Assay [7] deals with MCF7. The assay is described as follows: Induction of apoptosis in human MCF7 cells assessed as viable cells at 15 uM after 72 hrs by AnnexinV-FITC staining based flow cytometry (reference value: 60.5 +/- 6 %). The following applies: MCF7, 72 h, read-out: Activity. The class given is functional.
The subject of assay [8] is MCF7. The assay is described as follows: Induction of apoptosis in human MCF7 cells assessed as early apoptotic cells at 15 uM after 48 hrs by AnnexinV-FITC staining based flow cytometry (reference value: 7.8 +/- 5.3 %). It is filed as functional.
Assay [9] has as its system MCF7. The assay is described as follows: Induction of apoptosis in human MCF7 cells assessed as early apoptotic cells at 15 uM after 72 hrs by AnnexinV-FITC staining based flow cytometry (reference value: 20.1 +/- 7.3 %). The class given is functional.
Assay [10] concerns MCF7. As to the kind of experiment: Induction of apoptosis in human MCF7 cells assessed as late apoptotic cells at 15 uM after 48 hrs by AnnexinV-FITC staining based flow cytometry (reference value: 7.6 +/- 5.9 %). It is filed as functional.
In assay [11] the test system is MCF7. As to the kind of experiment: Induction of apoptosis in human MCF7 cells assessed as late apoptotic cells at 15 uM after 72 hrs by AnnexinV-FITC staining based flow cytometry (reference value: 11.8 +/- 2.2 %). The class given is functional.
For assay [12], the system named is MCF7. As to the kind of experiment: Induction of apoptosis in human MCF7 cells assessed as necrotic cells at 15 uM after 48 hrs by AnnexinV-FITC staining based flow cytometry (reference value: 10.2 +/- 1.9 %). The class given is functional.
The test system of assay [13] is MCF7. As to the kind of experiment: Induction of apoptosis in human MCF7 cells assessed as necrotic cells at 15 uM after 72 hrs by AnnexinV-FITC staining based flow cytometry (reference value: 7.6 +/- 1 %). The class given is functional.
Assay [14] deals with T1, Histone-lysine N-methyltransferase EHMT2 (Homo sapiens) (UniProt Q96KQ7).
T1 sequence (whole entry): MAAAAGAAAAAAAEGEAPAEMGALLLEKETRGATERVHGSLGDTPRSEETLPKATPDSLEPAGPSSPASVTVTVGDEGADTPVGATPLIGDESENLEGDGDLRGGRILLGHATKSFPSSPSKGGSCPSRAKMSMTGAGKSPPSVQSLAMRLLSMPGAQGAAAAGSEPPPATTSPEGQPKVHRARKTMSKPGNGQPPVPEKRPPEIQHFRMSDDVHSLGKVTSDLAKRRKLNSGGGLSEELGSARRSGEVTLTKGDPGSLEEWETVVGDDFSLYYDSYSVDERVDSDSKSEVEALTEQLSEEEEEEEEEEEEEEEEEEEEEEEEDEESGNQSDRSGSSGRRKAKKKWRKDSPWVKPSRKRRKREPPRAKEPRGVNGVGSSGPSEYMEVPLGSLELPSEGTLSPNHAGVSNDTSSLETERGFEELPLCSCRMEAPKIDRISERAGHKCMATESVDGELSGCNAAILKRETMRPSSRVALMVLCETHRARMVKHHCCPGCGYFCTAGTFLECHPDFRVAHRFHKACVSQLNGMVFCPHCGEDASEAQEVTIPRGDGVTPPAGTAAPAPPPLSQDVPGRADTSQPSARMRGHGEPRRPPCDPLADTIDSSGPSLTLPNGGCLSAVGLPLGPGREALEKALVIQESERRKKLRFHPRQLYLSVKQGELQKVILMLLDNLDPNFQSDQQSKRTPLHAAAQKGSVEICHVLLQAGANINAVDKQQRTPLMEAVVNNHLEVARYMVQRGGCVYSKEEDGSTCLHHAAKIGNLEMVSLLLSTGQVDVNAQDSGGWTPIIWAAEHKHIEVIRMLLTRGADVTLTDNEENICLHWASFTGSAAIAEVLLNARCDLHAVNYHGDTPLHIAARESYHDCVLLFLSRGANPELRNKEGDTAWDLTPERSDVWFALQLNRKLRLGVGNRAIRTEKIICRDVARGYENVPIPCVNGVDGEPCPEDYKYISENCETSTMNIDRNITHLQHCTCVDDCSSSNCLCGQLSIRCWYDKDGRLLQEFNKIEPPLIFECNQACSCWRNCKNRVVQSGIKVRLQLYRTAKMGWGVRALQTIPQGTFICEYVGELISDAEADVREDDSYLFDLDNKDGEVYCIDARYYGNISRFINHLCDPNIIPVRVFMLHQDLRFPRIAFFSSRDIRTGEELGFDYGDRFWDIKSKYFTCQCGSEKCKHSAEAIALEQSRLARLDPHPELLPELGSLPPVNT
The assay is described as follows: Inhibition of G9a in human MCF7 nuclear extracts assessed as reduction in H3K9 levels at 15 uM after 48 hrs. It is filed as cell-based.

Assay [15] concerns the target T1, Histone-lysine N-methyltransferase EHMT2 (Homo sapiens). The assay is described as follows: Inhibition of G9a in human MCF7 nuclear extracts assessed as reduction in H3K27 levels at 15 uM after 48 hrs. The class given is cell-based.
The nature of assay [16]: Antiproliferative activity against human Ovarian cancer LA#83 cells assessed as cell survival at 20 uM after 72 hrs by MTT assay relative to control. The class given is functional. The following applies: read-out: Survival.
A short description of assay [17]: Antiproliferative activity against human Ovarian cancer DC#83 cells assessed as cell survival at 20 uM after 72 hrs by MTT assay relative to control. The class given is functional. The following applies: read-out: Survival.
A short description of assay [18]: Antiproliferative activity against human Ovarian cancer LA#110 cells assessed as cell survival at 20 uM after 72 hrs by MTT assay relative to control. The class given is functional. To be noted: read-out: Survival.
Assay [19] can be described thus: Antiproliferative activity against human Ovarian cancer DC#110 cells assessed as cell survival at 20 uM after 72 hrs by MTT assay relative to control. It is filed as functional. To be noted: read-out: Survival.
The test system of assay [20] is MCF7. The assay is described as follows: Inhibition of DNA methylation in human MCF7 cells assessed as melting temperature of RARbeta amplicon DNA by qPCR method (reference value: 77 degC). The class given is cell-based.
Assay [21] concerns MCF7. The assay is described as follows: Inhibition of DNA methylation in human MCF7 cells assessed as decrease in 5-methylcytosine level by ELISA. The class given is cell-based.
In assay [22] the test system is MCF7. As to the kind of experiment: Cell cycle arrest in human MCF7 cells assessed as accumulation at G0/G1 phase at 15 uM after 24 hrs by flow cytometry relative to control. The class given is functional.
In assay [23] the test system is MCF7. As to the kind of experiment: Inhibition of DNA methylation in human MCF7 cells assessed as decrease in methylation of RARbeta DNA by qPCR method. It is filed as cell-based.
Assay [24] deals with MCF7. The assay is described as follows: Inhibition of DNA methylation in human MCF7 cells assessed as reduction in H3K9me3 levels at 0.5 to 1 uM after 48 hrs by Western blot analysis. It is filed as cell-based.
Assay [25] has as its system MCF7. The assay is described as follows: Inhibition of DNA methylation in human MCF7 cells assessed as reduction in H3K9me3 levels at 3 uM after 48 hrs by Western blot analysis. It is filed as cell-based.
In assay [26] the test system is MCF7. As to the kind of experiment: Inhibition of DNA methylation in human MCF7 cells assessed as reduction in H3K27me3 levels at 3 uM after 48 hrs by Western blot analysis. The class given is cell-based.

Experimental findings from ChEMBL document CHEMBL3822445, “Histone demethylating agents as potential S-adenosyl-l-methionine-competitors” (Medchemcomm, 2016) are described below.

The term inhibition denotes the relative decrease from the control value, in per cent. What is called IC50 is the concentration needed to halve the response being measured. Low readings indicate greater potency in that assay, high ones weaker potency in that assay.

The structures appear in SMILES notation. Active and inactive are the calls of the source. The calls are words filed in the database; no cut-off is given here.

For `CN1c2ccccc2C(=O)N2CCc3c([nH]c4ccccc34)[C@H]21`, the results for the inhibition in the assay with MCF7 [1] and in the assay with MCF7 [2] were 60% and 100%, respectively. Also, the concentration for half-maximal inhibition (IC50) with MCF7 [3] came out at 5.4 µM; in assay [4], 0.26 µM; in the assay with MSTO-211H, 0.54 µM. Further, the Activity with MCF7 [5] was found to be 39.3%; in the assay on MCF7 [8] it was 11.9%; in the assay with MCF7 [9], 16.8%; with MCF7 [10] it was 27.6%; with MCF7 [11] it was 33.2%; in the assay with MCF7 [12] it was 9%. Further, the Activity with MCF7 [13] turned out to be 8.1%. Also, the viability at 15 µM in the assay on MCF7 [6] stood at 51.5%; with MCF7 [7], 41.9%. Moreover, the inhibition entry (in assay [14]; with MCF7 [21]) was “Active” throughout. For the same molecule, the inhibition entry in assay [15] is “inactive”. The viability at 20 µM stood at 53.2% in [16], 65.5% in assay [17], 26.8% in assay [18] and 43.1% in assay [19]. In the assay with MCF7 [20], the Tm was determined as 75.5 °C.
In the case of `CCCCN1C(=O)[C@H]2Cc3c([nH]c4ccccc34)CN2C1=O`, the inhibition with MCF7 [1] stood at 60%; in the assay on MCF7 [2] it was 50%. For the same molecule, the figures for the concentration for half-maximal inhibition (IC50) (with MCF7 [3]; in [4]; in the assay with MSTO-211H) were 32.3 µM, > 20 µM and > 20 µM, respectively. Further, the Activity in the assay with MCF7 [22] was found to be 3%; in the assay on MCF7 [8] it was 12.2%; in the assay on MCF7 [9] it was 19.5%; in the assay on MCF7 [10], 11%; in the assay with MCF7 [11] it was 12.1%; with MCF7 [12] it was 6.4%. Besides, in the assay with MCF7 [13], the Activity is recorded as 7.2%. The viability at 15 µM was determined as 70.4% with MCF7 [6] and 61.2% with MCF7 [7]. The inhibition result (in assay [14]; with MCF7 [21]; with MCF7 [23]) was “Active” in each case. In addition, the inhibition entry in [15] is “inactive”. The viability at 20 µM in assay [16] came to 64.7%; in assay [17], 91.2%; in [18], 78%; in assay [19], 86.4%.
On to `Nc1nccc2c1ncn2[C@@H]1C=C(CO)[C@@H](O)[C@H]1O`, for which the viability at 15 µM with MCF7 [6] came to 32.2%; with MCF7 [7] it was 52.6%. Also, the Activity came to 12.8% with MCF7 [8]; 17.4% with MCF7 [9]; 16.1% in the assay with MCF7 [10]; 24.1% in the assay on MCF7 [11]; 7.8% in the assay with MCF7 [12]; 5.9% with MCF7 [13]. Further, the inhibition result in [14] and in [15] was “Active” in each case. The viability at 20 µM in assay [16] amounted to 42.5%; in [17], 63.5%; in assay [18] it was 30.4%; in [19], 13.6%. Also, the inhibition entry in the assay with MCF7 [24] is “inactive”.
As for `COc1cc2nc(N3CCCN(C)CC3)nc(NC3CCN(Cc4ccccc4)CC3)c2cc1OC`, the inhibition in the assay on MCF7 [25] is 80%; with MCF7 [26] it was 25%. In addition, the viability at 15 µM in the assay on MCF7 [6] was found to be 67.2%; in the assay with MCF7 [7], 65.8%. The Activity amounted to 12.6% in the assay with MCF7 [8]; 13.5% with MCF7 [9]; 13.8% in the assay with MCF7 [10]; 14.3% with MCF7 [11]; 6.3% with MCF7 [12]; 6.3% in the assay on MCF7 [13]. The inhibition entry in assay [14] and in assay [15] was “Active” each time. The viability at 20 µM in assay [16] came to 57%; in assay [17] it was 86.2%; in assay [18], 50.2%; in [19], 73%.
